US20210330736A1 (UNIVERSITEIT VAN AMSTERDAM, priority 2018, published 2021)
pIC50: −log10 of the molar value.

Test system: Ser40 phosphorylation of Th in MN9D cells
Test: Th Ser40 phosphorylation in MN9D cells (western blot, P-Ser40/total Th)
Format: cell-based
Method: FIG. 6. PDE2a is an important effector regulating Ser40 phosphorylation in MN9D cells. MN9D cultures were treated with IBMX or BAY-60-7550 (50 μM), a PDE2A-selective inhibitor. Cells were analyzed on western-blot for phosphorylation of Ser40 , total Th, and actin.
FIG. 7. PDE2a is an important effector regulating Ser40 phosphorylation in MN9D cells. BAY-60-7550 dose-curve and representative examples in MN9D (n=9, red) and HEK cells (n=4, blue) (Mean±SEM). Cells were treated with various concentrations of BAY 60-7750 and analyzed for Th phosphorylation on Ser40 , total Th and actin.
FIG. 10. PDE11 is an important effector regulating Ser40 phosphorylation in MN9D cells. BC 11-38 dose-curve and representative examples in MN9D (n=2) (Mean±SEM). IBMX served as a control and was used at 100 μM. Cell were analyzed for phosphorylation of Th on Ser40 and total Th was used as a loading control to determine phosphorylation specific effects.
24 hours prior to the administration of the different compounds, cells were serum-starved with DMEM medium supplemented with L-glutamine and Pen&Strep. Unless otherwise stated, the concentration of the different reagents is reported in Table 1 and the duration of the treatment was 1 hour.
Cells were harvested in 150 μL of Laemmli sample buffer (2% SDS, 10% glycerol, 60 mM Tris-Cl pH 6.8, 0.01% bromophenol blue, 50 mM freshly added DTT). Wells were duplicated in pairs and pooled into the same tubes to minimize variability. Samples were sonicated at maximum potency during 3 minutes, heated at 95° C. for 5 minutes and spun down briefly before loading. Running gels were 10% polyacrylamide except for the GUCY2C detection, which was optimal in 7% gels (375 mM Tris-Cl pH 8.8, 0.1% APS, 0.1% SDS, 0.04% TEMED). Stacking gels were 5% polyacrylamide (125 mM Tris-Cl pH 6.8, 0.1% APS, 0.1% SDS, 0.04% TEMED).
Up to 35 μL of sample was loaded in each slot and run in the presence of tris-glycine buffer and 0.1% SDS. Running conditions were 100 V during the first 20 minutes, followed by 160 V until the migration front reached the bottom of the gel. The transference was performed at 100 V onto 0.2 μm nitrocellulose membranes, in the presence of tris-glycine buffer and 20% methanol. The blotting duration was 140 minutes except for the detection of GUCY2C, which was transferred during 240 minutes in the presence of 0.1% SDS. Membranes were then submerged in Ponceau S solution to check blotting efficiency (0.1% Ponceau S, 5% acetic acid). After several washings with DEMI water, blots were incubated during 1 hour in the presence of 5% milk powder and TBS-T (154 mM NaCl, 49.5 mM Tris-Cl pH 7.4, 0.1% Tween-20). The incubation with the primary antibodies was performed O/N at 4° C. in TBS-T (consult Table 2 for dilution and species). Membranes were rinsed in TBS-T during 1 hour to remove the excess antibody. The incubation with the secondary antibodies took place during 60 minutes at room temperature (1:10,000 dilution in TBS-T, with the exception of the goat secondary which was diluted 1:20,000). Secondary antibodies were fused to the horseradish peroxidase and raised against the host species of the primary antibody. After additional washings during 1 hour, blots were exposed to an enhanced chemiluminescence solution and the signal was detected using an Odyssey imager (LI-COR). Band densitometry was performed with LI-COR Image Studio Lite. For graph quantifications, ‘Fold Change’ represents the ratio P-Ser40/Total Th. Statistical comparisons between pair of groups correspond to unpaired Student's t-tests, as calculated with GraphPad Prism. Asterisks denote the following p-values: *<0.05, **<0.01, ***<0.001, ****<0.0001.
IBMX is a non-selective PDE inhibitor, therefore we investigated the effect of inhibiting a specific PDE selectively on Ser40 phosphorylation. To study the effect of PDE2A inhibition on Ser40 phosphorylation we treated the dopaminergic cell-line MN9D with Bay BAY-60-7550 and analyzed the effects. […]

pIC50 (n=9, read-out: IC50 in the dopaminergic model (dose-curve of Th Ser40 phosphorylation)): 6.00
Structure (SMILES): COc1ccc(Cc2nn3c([C@@H](CCCc4ccccc4)[C@@H](C)O)nc(C)c3c(=O)[nH]2)cc1OC [BAY 60-7550]
increase in the phosphorylation of Ser40 (50 μM): more than 4 fold
performance versus IBMX on Ser40 phosphorylation (IBMX 100 μM as control): performed better than IBMX
phosphorylation of Th on Ser40 as compared to total Th (in words) (dose-curve): clear fold change increase in Ser40 phosphorylation
